Data from patent US7473709B2, “11β-benzaldoxime derivatives of D-homooestra-4,9-dien-3-ones” (Bayer Schering Pharma AG, priority 2005, dated 2009).

Experiments:
[1] = molecular target: T1, Progesterone receptor (PR) (Oryctolagus cuniculus, UniProt P06186); assay: Receptor binding affinity, progesterone receptor (competitive binding with 3H-ORG 2058); details: uterus cytosol of oestradiol-primed rabbit; tracer 3H-ORG 2058 5 nM; reference progesterone = 100%
T1 construct: receptors in the cytosol from animal target organs; from tissue; host or cells: uterus cytosol of oestradiol-primed rabbit
T1 sequence (P06186 1-930): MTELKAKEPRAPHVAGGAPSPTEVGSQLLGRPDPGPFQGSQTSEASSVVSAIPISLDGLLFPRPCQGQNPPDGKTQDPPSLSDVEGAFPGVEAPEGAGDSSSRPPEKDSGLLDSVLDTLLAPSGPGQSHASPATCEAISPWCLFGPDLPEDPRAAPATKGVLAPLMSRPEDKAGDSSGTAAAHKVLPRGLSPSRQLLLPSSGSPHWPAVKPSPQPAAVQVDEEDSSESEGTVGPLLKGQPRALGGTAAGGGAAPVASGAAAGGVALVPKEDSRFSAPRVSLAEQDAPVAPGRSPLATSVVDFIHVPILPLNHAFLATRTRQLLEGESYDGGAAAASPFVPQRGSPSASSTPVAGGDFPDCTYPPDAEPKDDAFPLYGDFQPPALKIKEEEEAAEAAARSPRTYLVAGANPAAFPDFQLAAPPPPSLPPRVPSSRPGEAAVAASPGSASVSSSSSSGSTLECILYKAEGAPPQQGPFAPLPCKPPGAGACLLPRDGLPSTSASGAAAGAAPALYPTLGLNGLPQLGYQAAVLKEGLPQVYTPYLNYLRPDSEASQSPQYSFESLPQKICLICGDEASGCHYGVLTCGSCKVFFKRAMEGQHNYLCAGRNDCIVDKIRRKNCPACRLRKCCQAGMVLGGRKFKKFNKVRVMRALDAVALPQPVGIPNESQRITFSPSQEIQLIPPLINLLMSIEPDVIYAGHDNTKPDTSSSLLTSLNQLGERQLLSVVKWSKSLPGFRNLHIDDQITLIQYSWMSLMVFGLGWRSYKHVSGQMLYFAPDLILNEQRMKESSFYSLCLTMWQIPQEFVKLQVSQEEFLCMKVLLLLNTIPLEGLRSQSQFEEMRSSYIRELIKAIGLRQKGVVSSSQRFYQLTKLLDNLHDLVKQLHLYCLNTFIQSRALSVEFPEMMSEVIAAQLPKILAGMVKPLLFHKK
Experimental: (§1) The receptor binding affinity was determined by the competitive binding of a specifically binding ^3H-labelled hormone (tracer) and the test compound to receptors in the cytosol from animal target organs, with the aim of achieving receptor saturation and reaction equilibrium.
(§2) The tracer and increasing concentrations of the test compound (competitor) were coincubated with the receptor-containing cytosol fraction at 0-4° C. for 18 h. After separation of the unbound tracer with a carbon/dextran suspension, the proportion of receptor-bound tracer was measured for each concentration and the IC50 was determined from the concentration series.
(§3) The following incubation conditions were chosen for the individual receptor types:
Uterus cytosol of the oestradiol-primed rabbit, homogenized in TED buffer (20 mM Tris/HCI, pH 7.4; 1 mM ethylenediaminetetraacetate, 2 mM dithiothreitol) containing 250 mM sucrose; kept at −30° C.

[2] = molecular target: T2, Glucocorticoid receptor (GR) (Rattus norvegicus, UniProt P06536); assay: Receptor binding affinity, glucocorticoid receptor (competitive binding with 3H-dexamethasone); details: for Glucocorticoid receptor (GR) dexamethasone = 100% (relative molar binding affinity, RBA): thymus cytosol of adrenalectomized rat, tracer 3H-dexamethasone 20 nM, reference dexamethasone = 100%
T2 construct: receptors in the cytosol from animal target organs; from tissue; host or cells: thymus cytosol of adrenalectomized rat
T2 sequence (P06536 1-795): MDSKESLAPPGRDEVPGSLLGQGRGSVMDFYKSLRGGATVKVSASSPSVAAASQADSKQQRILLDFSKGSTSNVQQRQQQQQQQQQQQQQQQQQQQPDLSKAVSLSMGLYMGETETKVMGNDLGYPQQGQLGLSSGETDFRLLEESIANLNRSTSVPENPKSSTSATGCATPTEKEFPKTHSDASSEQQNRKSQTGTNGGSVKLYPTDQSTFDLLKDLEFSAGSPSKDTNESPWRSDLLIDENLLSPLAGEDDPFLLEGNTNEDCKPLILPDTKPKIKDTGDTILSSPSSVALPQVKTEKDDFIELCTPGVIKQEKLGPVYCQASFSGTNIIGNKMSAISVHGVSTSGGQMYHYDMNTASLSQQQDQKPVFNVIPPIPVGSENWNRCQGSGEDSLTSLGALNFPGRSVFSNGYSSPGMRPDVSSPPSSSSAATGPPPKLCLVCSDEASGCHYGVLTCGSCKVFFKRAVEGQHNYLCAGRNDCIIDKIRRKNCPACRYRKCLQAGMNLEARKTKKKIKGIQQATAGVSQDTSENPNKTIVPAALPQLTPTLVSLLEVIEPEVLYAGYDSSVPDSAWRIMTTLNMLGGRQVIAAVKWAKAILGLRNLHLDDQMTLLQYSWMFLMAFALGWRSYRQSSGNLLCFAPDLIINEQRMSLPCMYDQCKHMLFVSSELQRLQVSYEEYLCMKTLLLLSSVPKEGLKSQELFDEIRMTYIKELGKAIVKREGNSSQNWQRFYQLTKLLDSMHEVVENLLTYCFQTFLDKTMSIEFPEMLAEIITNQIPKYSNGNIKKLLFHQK
Experimental: as §1, §2, §3
Thymus cytosol of the adrenalectomized rat, thymi stored at −30° C.; buffer: TED. Tracer: ^3H-dexamethasone, 20 nM; reference substance: dexamethasone.

Molecule	Progesterone receptor (PR) progesterone = 100% (relative molar binding affinity, RBA) [1]	Ratio GR/PR ([2]; ratio of RBA at GR to RBA at PR)	Glucocorticoid receptor (GR) dexamethasone = 100% (relative molar binding affinity, RBA) [2]
4-[17aβ-Methoxy-17aα-(methoxymethyl)-17a-homo-3-oxooestra-4,9-dien-11β-yl]benzaldehyde (1E)-[O-(ethylamino)carbonyl]oxime [Example 6]	158%	2.8	450%
CC#C[C@]1(O)CC[C@H]2[C@@H]3CCC4=CC(=O)CCC4=C3[C@@H](c3ccc(N(C)C)cc3)C[C@@]21C [RU 38486, mifepristone]	–	–	683%
